Earlier results, collected in US6719977B1, “Methods to potentiate cancer therapies” (The General Hospital Corporation, priority 1998, dated 2004).

What was measured:
[1] = infusion of collagenase
[2] = collagenase treatment
[3] = infusion of relaxin; fluid-filled subcutaneous balloon
[4] = animal models
[5] = animal models; remark: listed apart in the source
[6] = animal models; remark: listed apart in the source
fibroblast = settings: a number of experimental settings

Substance: collagenase
- penetration of small and large molecules into a tumor [1]: dramatically facilitates penetration
- hydraulic conductance [2]: increases hydraulic conductance

Substance: relaxin
- resistance to balloon expansion (pressure-volume relationship) [3]: decreased the resistance to balloon expansion
- formation of fibrotic capsules surrounding impenetrable foreign bodies [4]: prevent
- accumulation of collagen within implanted sponges [5]: prevent
- parenchymal fibrosis accompanying oxidative pulmonary damage induced by bleomycin [6]: prevent

Substance: γ-interferon [a pleiotypic cytokine produced by helper T cells]
- fibroblast proliferation and associated matrix deposition (fibroblast): inhibit fibroblast proliferation and associated matrix deposition
